Assay [1] has as its target Testis-specific serine/threonine-protein kinase 1 (TSSK1B) (Homo sapiens) (UniProt Q9BXA7). In words: STK22D (TSSK1) Kinase screen. Conditions: Compound concentration 1.0 uM; call rule not given here.
Assay [2] has as its target Glutamate receptor 2 (Homo sapiens) (UniProt P42262). As to conditions: Rattus norvegicus; Compound concentration 10.0 uM.
Assay [3] concerns the target Melanocortin receptor 3 (Homo sapiens) (UniProt P41968). Nature of the assay: Inhibition of Melanocortin MC3 at 10 µM in the Eurofins-Panlabs radioligand binding assay (Eurofins_assay_251300). Also on record: ligand concentration 0.035 nM. As to conditions: Compound concentration 10.0 uM.
Assay [4] has as its system Dual specificity mitogen-activated protein kinase kinase 6 (Homo sapiens), P52564 [S207E,T211E]. Nature of the assay: MAP2K6 (MKK6) S207E T211E Kinase screen. Conditions: Compound concentration 1.0 uM.
The target in assay [5] is Dual specificity tyrosine-phosphorylation-regulated kinase 4 (Homo sapiens) (UniProt Q9NR20). Nature of the assay: DYRK4 Kinase screen. Conditions: Compound concentration 1.0 uM.
Assay [6] addresses Myosin light chain kinase, smooth muscle (Homo sapiens) (UniProt Q15746). In words: MYLK (MLCK) Kinase screen. Conditions: Compound concentration 1.0 uM.
For assay [7], the target named is PI3-kinase p110-delta/p85-alpha (Homo sapiens) (UniProt P27986+O00329). Nature of the assay: PIK3CD/PIK3R1 (p110 delta/p85 alpha) Kinase screen. The assay is classed as protein-complex assay. Conditions: Compound concentration 1.0 uM.
For assay [8], the target named is Protein kinase C eta type (Homo sapiens) (UniProt P24723). In words: PRKCH (PKC eta) Kinase screen. As to conditions: Compound concentration 1.0 uM.
A short description of assay [9]: Inhibition of Atrial Natriuretic Factor (ANF) at 10 µM in the Eurofins-Panlabs radioligand binding assay (Eurofins_assay_211000). Conditions: Cavia porcellus.
In assay [10] the target is T1, Ephrin type-A receptor 1 (Homo sapiens) (UniProt P21709).
T1 sequence (whole entry): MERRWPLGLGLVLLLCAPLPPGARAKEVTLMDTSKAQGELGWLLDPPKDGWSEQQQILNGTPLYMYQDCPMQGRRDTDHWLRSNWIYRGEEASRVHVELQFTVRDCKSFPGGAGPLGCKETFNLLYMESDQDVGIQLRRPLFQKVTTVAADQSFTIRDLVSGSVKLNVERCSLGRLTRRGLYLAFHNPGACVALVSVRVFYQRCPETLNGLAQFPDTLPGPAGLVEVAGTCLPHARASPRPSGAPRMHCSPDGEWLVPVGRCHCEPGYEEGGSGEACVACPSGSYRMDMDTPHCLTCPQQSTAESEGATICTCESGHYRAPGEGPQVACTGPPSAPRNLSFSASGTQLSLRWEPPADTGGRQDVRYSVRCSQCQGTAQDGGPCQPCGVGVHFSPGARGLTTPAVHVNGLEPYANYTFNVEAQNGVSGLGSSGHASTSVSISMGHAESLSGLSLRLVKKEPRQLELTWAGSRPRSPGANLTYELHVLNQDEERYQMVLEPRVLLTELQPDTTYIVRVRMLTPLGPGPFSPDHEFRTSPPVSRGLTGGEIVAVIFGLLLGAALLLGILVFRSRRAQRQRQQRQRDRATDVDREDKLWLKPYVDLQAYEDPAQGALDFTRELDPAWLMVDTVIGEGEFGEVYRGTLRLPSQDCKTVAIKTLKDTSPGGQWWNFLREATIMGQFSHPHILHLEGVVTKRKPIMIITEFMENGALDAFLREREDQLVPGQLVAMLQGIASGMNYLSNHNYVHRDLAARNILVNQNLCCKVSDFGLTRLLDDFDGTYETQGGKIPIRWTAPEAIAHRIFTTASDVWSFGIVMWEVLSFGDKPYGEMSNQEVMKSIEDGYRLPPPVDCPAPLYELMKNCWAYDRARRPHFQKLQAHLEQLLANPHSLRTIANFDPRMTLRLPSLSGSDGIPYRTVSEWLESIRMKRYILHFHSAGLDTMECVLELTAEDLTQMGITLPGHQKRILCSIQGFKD
In words: EPHA1 Kinase screen. As to conditions: Compound concentration 1.0 uM.

The target in assay [11] is Serine/threonine-protein kinase Nek7 (Homo sapiens) (UniProt Q8TDX7). In words: NEK7 Kinase screen. Conditions: Compound concentration 1.0 uM.
In assay [12] the target is Protein kinase C alpha type (Homo sapiens) (UniProt P17252). In words: PRKCA (PKC alpha) Kinase screen. Conditions: Compound concentration 1.0 uM.
In assay [13] the target is B2 bradykinin receptor (Homo sapiens) (UniProt P30411). As to conditions: Compound concentration 10.0 uM.
In assay [14] the test system is Serine/threonine-protein kinase B-raf (Homo sapiens), P15056 [V600E]. Nature of the assay: BRAF V599E Kinase screen. Conditions: Compound concentration 1.0 uM.
Assay [15] has as its target Tyrosine-protein kinase Fes/Fps (Homo sapiens) (UniProt P07332). In words: FES (FPS) Kinase screen. As to conditions: Compound concentration 1.0 uM.
Assay [16] has as its target T2, 5-hydroxytryptamine receptor 2C (Homo sapiens) (UniProt P28335).
T2 sequence (whole entry): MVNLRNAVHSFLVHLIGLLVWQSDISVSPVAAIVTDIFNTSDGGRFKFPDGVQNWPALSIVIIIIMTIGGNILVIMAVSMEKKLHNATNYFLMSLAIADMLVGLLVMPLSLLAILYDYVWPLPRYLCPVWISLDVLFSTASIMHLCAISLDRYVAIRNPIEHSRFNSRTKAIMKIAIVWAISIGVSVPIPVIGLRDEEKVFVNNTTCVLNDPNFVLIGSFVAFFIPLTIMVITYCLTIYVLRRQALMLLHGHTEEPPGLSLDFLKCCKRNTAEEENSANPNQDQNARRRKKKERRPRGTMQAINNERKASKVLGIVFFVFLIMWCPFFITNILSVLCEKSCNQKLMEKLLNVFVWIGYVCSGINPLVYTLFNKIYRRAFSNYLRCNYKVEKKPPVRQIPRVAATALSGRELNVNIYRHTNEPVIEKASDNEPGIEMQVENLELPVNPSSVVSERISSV
As to conditions: Compound concentration 10.0 uM.

One compound from ChEMBL document CHEMBL4507291 (2021) can be followed below.

Usually inhibition stands for the relative decrease from the control value, in per cent.

Sequence of Dual specificity mitogen-activated protein kinase kinase 6 (Homo sapiens), P52564 [S207E,T211E] (P52564 whole entry S207E/T211E): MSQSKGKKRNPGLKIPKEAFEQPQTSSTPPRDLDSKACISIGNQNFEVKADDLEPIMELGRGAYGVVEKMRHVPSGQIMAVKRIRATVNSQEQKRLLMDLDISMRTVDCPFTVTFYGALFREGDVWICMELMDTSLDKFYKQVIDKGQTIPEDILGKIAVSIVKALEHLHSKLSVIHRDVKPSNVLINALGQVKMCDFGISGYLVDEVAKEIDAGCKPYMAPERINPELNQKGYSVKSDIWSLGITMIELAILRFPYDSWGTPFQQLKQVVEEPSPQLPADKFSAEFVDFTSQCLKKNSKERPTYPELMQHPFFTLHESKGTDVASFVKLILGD
Sequence of Myosin light chain kinase, smooth muscle (Homo sapiens) (Q15746 whole entry): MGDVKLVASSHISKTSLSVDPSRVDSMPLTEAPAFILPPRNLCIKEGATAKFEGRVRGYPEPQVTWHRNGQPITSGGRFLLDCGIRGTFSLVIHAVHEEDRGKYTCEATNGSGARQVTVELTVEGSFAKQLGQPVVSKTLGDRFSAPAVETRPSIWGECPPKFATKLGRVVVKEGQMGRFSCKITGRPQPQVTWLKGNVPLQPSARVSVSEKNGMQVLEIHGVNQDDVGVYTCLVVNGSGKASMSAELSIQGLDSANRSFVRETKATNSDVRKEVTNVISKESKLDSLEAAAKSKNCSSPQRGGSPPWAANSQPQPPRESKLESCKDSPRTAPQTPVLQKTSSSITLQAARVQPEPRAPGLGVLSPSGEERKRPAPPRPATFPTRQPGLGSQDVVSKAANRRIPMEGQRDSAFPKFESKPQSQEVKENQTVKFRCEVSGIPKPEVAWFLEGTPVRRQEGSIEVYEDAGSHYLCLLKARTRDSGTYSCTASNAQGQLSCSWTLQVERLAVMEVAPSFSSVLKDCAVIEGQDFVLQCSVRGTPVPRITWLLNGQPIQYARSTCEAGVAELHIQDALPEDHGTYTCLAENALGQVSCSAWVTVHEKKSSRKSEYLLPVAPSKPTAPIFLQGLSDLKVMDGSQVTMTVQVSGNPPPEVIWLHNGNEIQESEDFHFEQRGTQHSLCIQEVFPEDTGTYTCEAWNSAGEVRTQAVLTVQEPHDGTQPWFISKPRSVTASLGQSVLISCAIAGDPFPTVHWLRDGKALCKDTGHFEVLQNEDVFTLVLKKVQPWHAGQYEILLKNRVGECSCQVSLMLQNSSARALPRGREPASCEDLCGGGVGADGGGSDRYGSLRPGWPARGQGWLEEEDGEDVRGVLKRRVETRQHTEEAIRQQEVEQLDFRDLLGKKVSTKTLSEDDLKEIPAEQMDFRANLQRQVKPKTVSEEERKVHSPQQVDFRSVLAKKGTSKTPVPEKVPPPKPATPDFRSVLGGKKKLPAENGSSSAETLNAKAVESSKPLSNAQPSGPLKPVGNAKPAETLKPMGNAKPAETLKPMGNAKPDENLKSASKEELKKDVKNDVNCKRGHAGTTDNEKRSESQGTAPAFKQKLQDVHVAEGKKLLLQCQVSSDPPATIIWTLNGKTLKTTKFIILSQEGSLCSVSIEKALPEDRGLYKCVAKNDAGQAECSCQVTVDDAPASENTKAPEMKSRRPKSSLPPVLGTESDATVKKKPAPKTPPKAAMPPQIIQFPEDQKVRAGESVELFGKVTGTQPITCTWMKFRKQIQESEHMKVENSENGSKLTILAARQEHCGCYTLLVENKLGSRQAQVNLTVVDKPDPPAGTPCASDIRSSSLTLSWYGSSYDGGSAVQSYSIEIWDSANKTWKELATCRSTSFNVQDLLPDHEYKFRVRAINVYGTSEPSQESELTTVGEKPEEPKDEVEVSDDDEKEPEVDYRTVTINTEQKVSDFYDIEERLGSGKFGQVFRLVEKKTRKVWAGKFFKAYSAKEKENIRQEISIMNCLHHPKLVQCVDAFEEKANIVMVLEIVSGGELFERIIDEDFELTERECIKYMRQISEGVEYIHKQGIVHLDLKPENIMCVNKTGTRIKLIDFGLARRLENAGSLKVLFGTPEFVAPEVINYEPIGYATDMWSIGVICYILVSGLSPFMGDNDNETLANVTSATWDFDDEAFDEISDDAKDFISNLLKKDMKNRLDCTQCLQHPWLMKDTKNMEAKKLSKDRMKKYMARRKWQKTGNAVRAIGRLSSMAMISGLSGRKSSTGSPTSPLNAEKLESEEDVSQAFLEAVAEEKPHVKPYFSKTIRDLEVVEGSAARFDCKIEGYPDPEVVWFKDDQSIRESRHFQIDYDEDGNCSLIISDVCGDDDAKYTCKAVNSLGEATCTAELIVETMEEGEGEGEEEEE
Sequence of Serine/threonine-protein kinase B-raf (Homo sapiens), P15056 [V600E] (P15056 whole entry V600E): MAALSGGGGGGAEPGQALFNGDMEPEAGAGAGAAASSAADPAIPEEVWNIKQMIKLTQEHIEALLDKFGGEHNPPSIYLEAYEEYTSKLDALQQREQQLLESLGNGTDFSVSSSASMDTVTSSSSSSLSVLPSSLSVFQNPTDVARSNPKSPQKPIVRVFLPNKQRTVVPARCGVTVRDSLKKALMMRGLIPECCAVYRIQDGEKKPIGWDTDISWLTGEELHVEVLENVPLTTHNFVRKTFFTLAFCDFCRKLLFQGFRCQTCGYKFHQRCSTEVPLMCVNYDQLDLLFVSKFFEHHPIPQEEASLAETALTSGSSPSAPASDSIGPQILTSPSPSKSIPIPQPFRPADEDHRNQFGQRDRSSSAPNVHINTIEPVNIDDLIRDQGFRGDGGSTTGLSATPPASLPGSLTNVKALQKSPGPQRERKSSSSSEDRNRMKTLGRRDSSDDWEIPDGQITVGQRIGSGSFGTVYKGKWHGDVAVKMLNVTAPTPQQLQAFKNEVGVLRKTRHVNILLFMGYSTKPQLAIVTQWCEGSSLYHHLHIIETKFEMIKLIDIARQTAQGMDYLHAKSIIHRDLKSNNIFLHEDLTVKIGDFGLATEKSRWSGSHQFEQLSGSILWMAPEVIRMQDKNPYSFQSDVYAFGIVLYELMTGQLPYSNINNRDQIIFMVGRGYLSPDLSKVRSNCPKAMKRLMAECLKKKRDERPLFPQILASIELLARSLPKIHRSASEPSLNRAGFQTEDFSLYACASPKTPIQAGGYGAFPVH
Sequence of Testis-specific serine/threonine-protein kinase 1 (TSSK1B) (Homo sapiens) (Q9BXA7 whole entry, looked up): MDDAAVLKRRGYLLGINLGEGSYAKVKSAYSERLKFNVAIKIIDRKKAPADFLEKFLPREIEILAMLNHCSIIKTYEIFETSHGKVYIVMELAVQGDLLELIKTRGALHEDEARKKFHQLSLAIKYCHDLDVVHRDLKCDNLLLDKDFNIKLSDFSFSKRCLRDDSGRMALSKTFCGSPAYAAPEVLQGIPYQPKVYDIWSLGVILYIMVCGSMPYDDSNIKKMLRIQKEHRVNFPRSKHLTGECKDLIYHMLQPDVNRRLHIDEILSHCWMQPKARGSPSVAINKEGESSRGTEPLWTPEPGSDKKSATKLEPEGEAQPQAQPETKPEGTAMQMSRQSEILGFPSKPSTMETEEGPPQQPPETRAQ
Sequence of Serine/threonine-protein kinase Nek7 (Homo sapiens) (Q8TDX7 whole entry, looked up): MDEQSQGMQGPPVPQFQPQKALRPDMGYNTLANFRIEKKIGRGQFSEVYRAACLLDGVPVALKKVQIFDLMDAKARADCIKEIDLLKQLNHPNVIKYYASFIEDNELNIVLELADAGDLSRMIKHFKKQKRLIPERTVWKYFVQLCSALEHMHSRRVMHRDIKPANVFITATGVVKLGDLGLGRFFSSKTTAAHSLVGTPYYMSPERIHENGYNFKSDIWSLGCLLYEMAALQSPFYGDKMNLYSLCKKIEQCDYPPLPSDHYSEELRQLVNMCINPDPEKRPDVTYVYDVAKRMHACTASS
Sequence of B2 bradykinin receptor (Homo sapiens) (P30411 whole entry): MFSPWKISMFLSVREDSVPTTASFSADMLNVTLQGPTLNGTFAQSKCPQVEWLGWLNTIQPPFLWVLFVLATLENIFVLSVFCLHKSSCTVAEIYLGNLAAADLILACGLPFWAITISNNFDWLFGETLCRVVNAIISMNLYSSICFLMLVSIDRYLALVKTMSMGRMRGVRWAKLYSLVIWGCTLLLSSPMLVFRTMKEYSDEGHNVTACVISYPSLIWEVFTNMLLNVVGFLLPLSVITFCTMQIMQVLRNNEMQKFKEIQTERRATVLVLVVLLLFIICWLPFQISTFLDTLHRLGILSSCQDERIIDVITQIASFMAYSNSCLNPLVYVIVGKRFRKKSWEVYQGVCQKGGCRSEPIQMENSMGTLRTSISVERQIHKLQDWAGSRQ

Regarding `C[C@@H]1CN(c2cc(-c3n[nH]c4ccc(OC5(C)CC5)cc34)ncn2)C[C@H](C)O1` [MLi-2], the inhibition was 15.8% in assay [1]; -2% in [2]; -2% in [3]; -1.97% in [4]; 1.74% in assay [5]; 10.9% in assay [6]. Moreover, the inhibition in assay [7] is 2.08%; in assay [8], 6.4%; in assay [10] it was 7.77%; in assay [11] it was 3.68%; in assay [12], -4.08%; in [13], 7%. The results for the inhibition in assay [14], in assay [15] and in [16] were 10.4%, 6.03% and -7%, respectively. Also, in assay [9], the inhibition at 10 µM is -2% (not active).
